Test results reported in patent publication US7078222B2, “Microorganism for producing riboflavin and method for producing riboflavin using the same” (CJ Corp., priority 2002, dated 2006).

Assays:
Bacillus subtilis AS5 = test: Evaluation of resistance against DL-β-hydroxynorvaline (growth in DL-β-hydroxynorvaline-containing minimal medium); format: cell-based; parameters: key to growth of strain: +: growth; −: not growth; settings: for growth of strain: 30° C., 5 days
Procedure: (§1) In this example, in order to evaluate resistance to DL-β-hydroxynorvaline, the Bacillus subtilis CJKB0002 (KCCM-10446) of Example 1 and the Bacillus subtilis AS5 as the parent strain were cultured in various concentrations of DL-β-hydroxynorvaline-containing media. In detail, respective strains were inoculated onto DL-β-hydroxynorvaline-containing media as shown in Table 1 and cultured at 30° C. for 5 days. In this case, the concentration of DL-β-hydroxynorvaline ranged from 0 to 350 mg/l.

[1] = system: Bacillus subtilis CJKB0002 (KCCM-10446); test: as above; format: cell-based; parameters: key to growth of strain: +: growth; −: not growth; settings: for growth of strain: 30° C., 5 days
Procedure: as §1

SMILES: CCC(O)C(N)C(=O)O (racemic) [DL-β-hydroxynorvaline]
- growth of strain (Bacillus subtilis AS5; 50 mg/l DL-β-hydroxynorvaline): +
- growth of strain (Bacillus subtilis AS5; 100 mg/l DL-β-hydroxynorvaline): −
- growth of strain (Bacillus subtilis AS5; 200 mg/l DL-β-hydroxynorvaline): −
- growth of strain (Bacillus subtilis AS5; 250 mg/l DL-β-hydroxynorvaline): −
- growth of strain (Bacillus subtilis AS5; 300 mg/l DL-β-hydroxynorvaline): −
- growth of strain (Bacillus subtilis AS5; 350 mg/l DL-β-hydroxynorvaline): −
- concentration of DL-β-hydroxynorvaline in which the strain cannot grow (Bacillus subtilis AS5; parent strain AS5): more than 50 mg/l
- growth of strain ([1]; 250 mg/l DL-β-hydroxynorvaline): +
- growth of strain ([1]; 300 mg/l DL-β-hydroxynorvaline): −
- growth of strain ([1]; 350 mg/l DL-β-hydroxynorvaline): −
- enhanced resistance to threonine analogue compared to Bacillus subtilis AS5 ([1]; CJKB0002 versus AS5): five times
- concentration of DL-β-hydroxynorvaline in which the strain can grow ([1]; mutant CJKB0002): ≤ 250 mg/L
